Test system: MV-4-11 cells
Experiment: Gene expression microarray analysis (Affymetrix PrimeView) and GSEA
Type: cell-based, human
Parameters: RFU PODN (11730768_x_at) / Fold change /veh PODN (11730768_x_at) / RFU LINC00158 (11744669_a_at) / Fold change /veh LINC00158 (11744669_a_at) / RFU DUSP10 (11751237_a_at) / Fold change /veh DUSP10 (11751237_a_at) / RFU ID3 (11757404_x_at) / Fold change /veh ID3 (11757404_x_at) / RFU PLEKHG5 (11737974_s_at) / Fold change /veh PLEKHG5 (11737974_s_at) / RFU LRRC4B (11730491_at) / Fold change /veh LRRC4B (11730491_at) / RFU GIMAP4 (11747438_a_at) / Fold change /veh GIMAP4 (11747438_a_at) / RFU KRT8 (11758183_x_at) / Fold change /veh KRT8 (11758183_x_at) / RFU CNN1 (11734310_a_at) / Fold change /veh CNN1 (11734310_a_at) / RFU VPS37D (11726825_at) / Fold change /veh VPS37D (11726825_at) / RFU C10orf10 (11716522_x_at) / Fold change /veh C10orf10 (11716522_x_at) / RFU KIR2DL2 /// KIR2DL4 /// KIR2DL5A /// KIR2DL5B /// KIR2DS1 /// KIR2DS2 /// KIR2DS3 /// KIR2DS4 /// KIR3DL3 /// KIR3DL3 /// KIR3DS1 (11738374_at) / Fold change /veh KIR2DL2 /// KIR2DL4 /// KIR2DL5A /// KIR2DL5B /// KIR2DS1 /// KIR2DS2 /// KIR2DS3 /// KIR2DS4 /// KIR3DL3 /// KIR3DL3 /// KIR3DS1 (11738374_at) / RFU C1QL1 (11718748_at) / Fold change /veh C1QL1 (11718748_at) / RFU TMPRSS4 (11747572_a_at) / Fold change /veh TMPRSS4 (11747572_a_at) / RFU HAMP (11756126_x_at) / Fold change /veh HAMP (11756126_x_at) / RFU RNFT2 (11725882_a_at) / Fold change /veh RNFT2 (11725882_a_at) / RFU NR4A2 (11747474_a_at) / Fold change /veh NR4A2 (11747474_a_at) / RFU ABCC12 (11746883_a_at) / Fold change /veh ABCC12 (11746883_a_at) / RFU TMEM136 (11760407_x_at) / Fold change /veh TMEM136 (11760407_x_at) / RFU CLDN22 /// WWC2 (11732394_at) / Fold change /veh CLDN22 /// WWC2 (11732394_at) / RFU HLA-DPB1 (11760878_x_at) / Fold change /veh HLA-DPB1 (11760878_x_at) / RFU SPINT1 (11716480_a_at) / Fold change /veh SPINT1 (11716480_a_at) / RFU GAP43 (11754022_s_at) / Fold change /veh GAP43 (11754022_s_at) / RFU A4GNT (11735810_at) / Fold change /veh A4GNT (11735810_at) / RFU PRB3 (11715151_x_at) / Fold change /veh PRB3 (11715151_x_at) / RFU TUBB4B (11761932_at) / Fold change /veh TUBB4B (11761932_at) / RFU CAPN14 (11732068_a_at) / Fold change /veh CAPN14 (11732068_a_at) / RFU TMCC2 (11721928_a_at) / Fold change /veh TMCC2 (11721928_a_at) / RFU IRGQ (11745062_a_at) / Fold change /veh IRGQ (11745062_a_at) / RFU FAM174B (11720279_a_at) / Fold change /veh FAM174B (11720279_a_at) / RFU TMPRSS4 (11748680_a_at) / Fold change /veh TMPRSS4 (11748680_a_at) / RFU FAM212B (11763350_a_at) / Fold change /veh FAM212B (11763350_a_at) / RFU PLEKHG5 (11743358_a_at) / Fold change /veh PLEKHG5 (11743358_a_at) / RFU ZSCAN30 (11745921_a_at) / Fold change /veh ZSCAN30 (11745921_a_at) / RFU CMKLR1 (11741424_a_at) / Fold change /veh CMKLR1 (11741424_a_at) / RFU LOC101060620 /// MAPK8IP1 (11723275_at) / Fold change /veh LOC101060620 /// MAPK8IP1 (11723275_at) / RFU SPTSSB (11747773_x_at) / Fold change /veh SPTSSB (11747773_x_at) / RFU PRSS12 (11739890_at) / Fold change /veh PRSS12 (11739890_at) / RFU BIN1 (11741810_x_at) / Fold change /veh BIN1 (11741810_x_at) / RFU WNT11 (11732464_a_at) / Fold change /veh WNT11 (11732464_a_at) / RFU C10orf10 (11716521_a_at) / Fold change /veh C10orf10 (11716521_a_at) / RFU C5orf56 (11738089_at) / Fold change /veh C5orf56 (11738089_at) / RFU CYB561 (11721691_x_at) / Fold change /veh CYB561 (11721691_x_at) / RFU ANKRD19P (11752326_a_at) / Fold change /veh ANKRD19P (11752326_a_at) / RFU OR2T12 /// OR2T33 /// OR2T8 (11738714_s_at) / Fold change /veh OR2T12 /// OR2T33 /// OR2T8 (11738714_s_at) / RFU VCAN (11748164_a_at) / Fold change /veh VCAN (11748164_a_at) / RFU JSRP1 (11732532_at) / Fold change /veh JSRP1 (11732532_at) / RFU KRTAP10-11 (11738290_x_at) / Fold change /veh KRTAP10-11 (11738290_x_at) / RFU MYO3A (11730013_a_at) / Fold change /veh MYO3A (11730013_a_at) / RFU EBF3 (11725865_a_at) / Fold change /veh EBF3 (11725865_a_at) / RFU CAMK2N1 (11719241_x_at) / Fold change /veh CAMK2N1 (11719241_x_at) / RFU C5orf56 (11738088_a_at) / Fold change /veh C5orf56 (11738088_a_at) / RFU OLFML3 (11715873_a_at) / Fold change /veh OLFML3 (11715873_a_at) / RFU LOC100653217 /// NTM (11731650_a_at) / Fold change /veh LOC100653217 /// NTM (11731650_a_at) / RFU MAPK11 (11762145_a_at) / Fold change /veh MAPK11 (11762145_a_at) / RFU FIZ1 (11724087_x_at) / Fold change /veh FIZ1 (11724087_x_at) / RFU OASL (11726364_x_at) / Fold change /veh OASL (11726364_x_at) / RFU SOX15 (11748057_x_at) / Fold change /veh SOX15 (11748057_x_at) / RFU CD79A (11719716_a_at) / Fold change /veh CD79A (11719716_a_at) / RFU HIST1H1D (11736915_at) / Fold change /veh HIST1H1D (11736915_at) / RFU CASKIN2 (11723855_a_at) / Fold change /veh CASKIN2 (11723855_a_at) / RFU LOC730098 (11760151_x_at) / Fold change /veh LOC730098 (11760151_x_at) / RFU OR4N2 (11742367_at) / Fold change /veh OR4N2 (11742367_at) / RFU PRRT2 (11749266_a_at) / Fold change /veh PRRT2 (11749266_a_at) / RFU SNX32 (11753110_a_at) / Fold change /veh SNX32 (11753110_a_at) / RFU CDHR5 (11726645_a_at) / Fold change /veh CDHR5 (11726645_a_at) / RFU RCAN1 (11760418_a_at) / Fold change /veh RCAN1 (11760418_a_at) / RFU FAM167A (11723789_a_at) / Fold change /veh FAM167A (11723789_a_at) / RFU FAM26E (11764081_at) / Fold change /veh FAM26E (11764081_at) / RFU ISYNA1 (11749810_s_at) / Fold change /veh ISYNA1 (11749810_s_at) / RFU ACY1 (11761880_at) / Fold change /veh ACY1 (11761880_at) / RFU 11764098_at / Fold change /veh 11764098_at / RFU SAMD14 (11745864_x_at) / Fold change /veh SAMD14 (11745864_x_at) / RFU NPB (11741838_a_at) / Fold change /veh NPB (11741838_a_at) / RFU TMPRSS6 (11731388_a_at) / Fold change /veh TMPRSS6 (11731388_a_at) / RFU KRTAP10-2 (11738614_at) / Fold change /veh KRTAP10-2 (11738614_at) / RFU ARHGAP8 /// PRR5-ARHGAP8 (11727945_x_at) / Fold change /veh ARHGAP8 /// PRR5-ARHGAP8 (11727945_x_at) / RFU KRTAP5-7 /// NADSYN1 (11734609_at) / Fold change /veh KRTAP5-7 /// NADSYN1 (11734609_at) / RFU RASL12 (11751679_a_at) / Fold change /veh RASL12 (11751679_a_at) / RFU CDKN2B (11736163_a_at) / Fold change /veh CDKN2B (11736163_a_at) / RFU PRF1 (11729649_at) / Fold change /veh PRF1 (11729649_at) / RFU, ZNF638 /// ZNF638-IT1 / Fold change vs veh, ZNF638 /// ZNF638-IT1 / RFU, PANK3 / Fold change vs veh, PANK3 / RFU, SH3YL1 / Fold change vs veh, SH3YL1 / RFU, ZEB2 / Fold change vs veh, ZEB2 / RFU, NRIP1 / Fold change vs veh, NRIP1 / RFU, PTTG1IP / Fold change vs veh, PTTG1IP / RFU, CAPN2 / Fold change vs veh, CAPN2 / RFU, MED14 / Fold change vs veh, MED14 / RFU, SNORA58 / Fold change vs veh, SNORA58 / RFU, C1orf63 / Fold change vs veh, C1orf63 / RFU, LRRFIP1 / Fold change vs veh, LRRFIP1 / RFU, NDUFAF7 / Fold change vs veh, NDUFAF7 / RFU, SLC12A2 / Fold change vs veh, SLC12A2 / RFU, IBTK / Fold change vs veh, IBTK / RFU, ESF1 / Fold change vs veh, ESF1 / Fold change vs veh, TMEM50B / RFU, TAOK1 / Fold change vs veh, TAOK1 / RFU, ACBD3 / Fold change vs veh, ACBD3 / RFU, TMA16 / Fold change vs veh, TMA16 / RFU, RWDD3 / Fold change vs veh, RWDD3 / RFU, BCAT1 / Fold change vs veh, BCAT1 / RFU, EDEM3 / Fold change vs veh, EDEM3 / RFU, TMEM33 / Fold change vs veh, TMEM33 / RFU, WDR75 / Fold change vs veh, WDR75 / RFU, AHCTF1 / Fold change vs veh, AHCTF1 / RFU, TFRC / Fold change vs veh, TFRC / RFU, ZDHHC17 / Fold change vs veh, ZDHHC17 / RFU, NOM1 / Fold change vs veh, NOM1 / RFU, ARL8B / Fold change vs veh, ARL8B / RFU, ZBTB11 / Fold change vs veh, ZBTB11 / RFU, TAMM41 / Fold change vs veh, TAMM41 / RFU, KIAA1704 /// LOC100996395 / Fold change vs veh, KIAA1704 /// LOC100996395 / RFU, ING1 / Fold change vs veh, ING1 / RFU, TRMT61B / Fold change vs veh, TRMT61B / RFU, FUBP3 / Fold change vs veh, FUBP3 / RFU, TP53 / Fold change vs veh, TP53 / RFU, TNKS2 / Fold change vs veh, TNKS2 / RFU, ZFP14 / Fold change vs veh, ZFP14 / RFU, ACTR2 / Fold change vs veh, ACTR2 / RFU, PPP3R1 / Fold change vs veh, PPP3R1 / RFU, PIK3R1 / Fold change vs veh, PIK3R1 / RFU, HNRNPA1 / Fold change vs veh, HNRNPA1 / RFU, RNF170 / Fold change vs veh, RNF170 / RFU, ZNF28 / Fold change vs veh, ZNF28 / RFU, RNGTT / Fold change vs veh, RNGTT / RFU, OGT / Fold change vs veh, OGT / RFU, BRD1 / Fold change vs veh, BRD1 / RFU, MARS / Fold change vs veh, MARS / RFU, ZNF655 / Fold change vs veh, ZNF655 / RFU, FAHD1 / Fold change vs veh, FAHD1 / RFU, BDP1 / Fold change vs veh, BDP1 / RFU, LRRCC1 / Fold change vs veh, LRRCC1 / RFU, ARID1A / Fold change vs veh, ARID1A / RFU, ZNF146 / Fold change vs veh, ZNF146 / RFU, ZNF330 / Fold change vs veh, ZNF330 / RFU, GPN3 / Fold change vs veh, GPN3 / RFU, C9orf123 / Fold change vs veh, C9orf123 / RFU, N4BP2L2 / Fold change vs veh, N4BP2L2 / RFU, ARFIP1 / Fold change vs veh, ARFIP1 / RFU, FAM179B / Fold change vs veh, FAM179B / RFU, BCL10 / Fold change vs veh, BCL10 / RFU, UHRF1BP1L / Fold change vs veh, UHRF1BP1L / RFU, BET1 / Fold change vs veh, BET1 / RFU, CNOT2 / Fold change vs veh, CNOT2 / RFU, ZNF268 / Fold change vs veh, ZNF268 / Fold change vs veh, ZNF507 / RFU, DGCR2 / Fold change vs veh, DGCR2 / RFU, WDSUB1 / Fold change vs veh, WDSUB1 / Fold change vs veh, HSP90B1 /// MIR3652 / RFU, ADSS / Fold change vs veh, ADSS / RFU, GK / Fold change vs veh, GK / RFU, ZNF148 / Fold change vs veh, ZNF148 / RFU, TAF9 / Fold change vs veh, TAF9 / RFU, SLC1A5 / Fold change vs veh, SLC1A5 / RFU, SLMO2 / Fold change vs veh, SLMO2 / RFU, ABCC4 / Fold change vs veh, ABCC4 / RFU, LOC101060439 /// RAP1B / Fold change vs veh, LOC101060439 /// RAP1B / RFU, RFX7 / Fold change vs veh, RFX7 / RFU, GTPBP10 / Fold change vs veh, GTPBP10 / RFU, CNEP1R1 / Fold change vs veh, CNEP1R1 / RFU, BIVM-ERCC5 /// ERCC5 / Fold change vs veh, BIVM-ERCC5 /// ERCC5 / RFU, ILF3 / Fold change vs veh, ILF3 / RFU 11762660_at / Fold change /veh 11762660_at / RFU VCAN (11757783_s_at) / Fold change /veh VCAN (11757783_s_at) / RFU DDX43 (11728927_at) / Fold change /veh DDX43 (11728927_at) / RFU KRT8 (11758188_x_at) / Fold change /veh KRT8 (11758188_x_at) / RFU NKD1 (11759106_at) / Fold change /veh NKD1 (11759106_at) / RFU SRD5A1 (11742802_a_at) / Fold change /veh SRD5A1 (11742802_a_at) / RFU TPSAB1 /// TPSB2 (11721975_s_at) / Fold change /veh TPSAB1 /// TPSB2 (11721975_s_at) / RFU GSTM3 (11746129_a_at) / Fold change /veh GSTM3 (11746129_a_at) / RFU IL23R (11737362_x_at) / Fold change /veh IL23R (11737362_x_at) / RFU TMEM51 (11727254_a_at) / Fold change /veh TMEM51 (11727254_a_at) / RFU PIWIL2 (11732686_x_at) / Fold change /veh PIWIL2 (11732686_x_at) / RFU ORM1 (11744905_x_at) / Fold change /veh ORM1 (11744905_x_at) / RFU CCDC152 (11743942_at) / Fold change /veh CCDC152 (11743942_at) / RFU ECM1 (11717891_a_at) / Fold change /veh ECM1 (11717891_a_at) / RFU IL23R (11748794_a_at) / Fold change /veh IL23R (11748794_a_at) / RFU TNFAIP8L3 (11732012_x_at) / Fold change /veh TNFAIP8L3 (11732012_x_at) / RFU MBOAT4 (11741988_at) / Fold change /veh MBOAT4 (11741988_at) / RFU 11764193_at / Fold change /veh 11764193_at / RFU TMEM53 (11763286_at) / Fold change /veh TMEM53 (11763286_at) / RFU MAGEB2 (11727129_at) / Fold change /veh MAGEB2 (11727129_at) / RFU TMEM200A (11744735_a_at) / Fold change /veh TMEM200A (11744735_a_at) / RFU CCDC152 (11751479_a_at) / Fold change /veh CCDC152 (11751479_a_at) / RFU FAM211A (11726209_a_at) / Fold change /veh FAM211A (11726209_a_at) / RFU RGS16 (11746705_a_at) / Fold change /veh RGS16 (11746705_a_at) / RFU VCAN (11755009_s_at) / Fold change /veh VCAN (11755009_s_at) / RFU RHOB (11743442_s_at) / Fold change /veh RHOB (11743442_s_at) / RFU RGS16 (11720943_a_at) / Fold change /veh RGS16 (11720943_a_at) / RFU RGS16 (11720944_at) / Fold change /veh RGS16 (11720944_at) / RFU, VPS4B / Fold change vs veh, VPS4B / RFU, CREB1 / Fold change vs veh, CREB1 / RFU, DNAJC13 / Fold change vs veh, DNAJC13 / RFU, GNAQ / Fold change vs veh, GNAQ / RFU, CDK5R1 / Fold change vs veh, CDK5R1 / RFU, ZRANB3 / Fold change vs veh, ZRANB3 / RFU, CUL4A / Fold change vs veh, CUL4A / RFU, CCNY / Fold change vs veh, CCNY / RFU, UFL1 / Fold change vs veh, UFL1 / RFU, COG3 / Fold change vs veh, COG3 / RFU, DIAPH2 / Fold change vs veh, DIAPH2 / RFU, SKA2 / Fold change vs veh, SKA2 / RFU, AFF3 / Fold change vs veh, AFF3 / RFU, LMF1 / Fold change vs veh, LMF1 / RFU, IPO11 / Fold change vs veh, IPO11 / RFU, DFFB / Fold change vs veh, DFFB / RFU, FOXP1 / Fold change vs veh, FOXP1 / RFU, CARD8 / Fold change vs veh, CARD8 / RFU, STRN3 / Fold change vs veh, STRN3 / RFU, ADK / Fold change vs veh, ADK / RFU, RASSF2 / Fold change vs veh, RASSF2 / RFU, WIPF1 / Fold change vs veh, WIPF1 / RFU, LARP1B / Fold change vs veh, LARP1B / RFU, RASA1 / Fold change vs veh, RASA1 / RFU, RB1 / Fold change vs veh, RB1 / RFU, PPFIA1 / Fold change vs veh, PPFIA1 / RFU, MAT2A / Fold change vs veh, MAT2A / RFU, CCT5 / Fold change vs veh, CCT5 / RFU, WDR92 / Fold change vs veh, WDR92 / RFU, CUX1 / Fold change vs veh, CUX1 / RFU, TTC7A / Fold change vs veh, TTC7A / RFU, TMEM135 / Fold change vs veh, TMEM135 / RFU, DEPTOR / Fold change vs veh, DEPTOR / RFU, CPM / Fold change vs veh, CPM / RFU, DNAJB6 / Fold change vs veh, DNAJB6 / RFU, CACNA2D3 / Fold change vs veh, CACNA2D3 / RFU, DTX4 / Fold change vs veh, DTX4 / RFU, TFCP2 / Fold change vs veh, TFCP2 / RFU, GMCL1 /// GMCL1P1 / Fold change vs veh, GMCL1 /// GMCL1P1 / RFU, AEBP2 / Fold change vs veh, AEBP2 / RFU, SNHG1 /// SNORD22 /// SNORD25 /// SNORD26 /// SNORD27 /// SNORD28 /// SNORD29 /// SNORD31 / Fold change vs veh, SNHG1 /// SNORD22 /// SNORD25 /// SNORD26 /// SNORD27 /// SNORD28 /// SNORD29 /// SNORD31 / Fold change (Aza/veh), C12orf56 (ProbeSet 11735607_a_at) / Fold change (ACY-1035/veh), C12orf56 (ProbeSet 11735607_a_at) / Fold change (Aza/veh), FGFR1OP (ProbeSet 11751329_s_at) / Fold change (ACY-1035/veh), FGFR1OP (ProbeSet 11751329_s_at) / Fold change (Aza/veh), VPS36 (ProbeSet 11739960_a_at) / Fold change (ACY-1035/veh), VPS36 (ProbeSet 11739960_a_at) / RFU SYPL1 (11715823_x_at) / Fold change /veh SYPL1 (11715823_x_at) / RFU IGFBP7 (11715501_s_at) / Fold change /veh IGFBP7 (11715501_s_at) / RFU REEP3 (11722064_at) / Fold change /veh REEP3 (11722064_at) / RFU IGLL1 (11728026_x_at) / Fold change /veh IGLL1 (11728026_x_at): dose or concentration left out as unconfirmed
Conditions: ProbeSet 11739263_x_at; LIST D

SMILES: Nc1ccc(-c2cccs2)cc1NC(=O)c1ccc2c(c1)cc(C1CC1)n2CCN1CCOCC1 [ACY-1035]
- RFU, VPS4B: 70.19 RFU

— article PMC5218480 (PLoS ONE, 2017)
